Source: PubChem BioAssay AID1963980 (Molecular Pharmacology Branch, DTP, NCI, 2024)
Values joined by “and” are separate entries in the source; they are usually repeats but may differ in a detail not shown here. Equal entries are not always repeated.

System: 475296-252-R-J1-PDC spheroid viability
Experiment: Anticancer human tumor 475296-252-R-J1-PDC patient-derived rectal carcinoma cell line growth inhibition [PI3K]
Conditions: spheroids with HUVEC and MSC; for viability, T/C: stronger effect = lower value
Summary of the method: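 Three cell types, namely tumor cells, endothelial cells and mesenchymal stem cells, formed each spheroid. Combinations with four PI3K inhibitors were screened at clinically achievable concentrations decreasing by half-log, and spheroid viability was recorded.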

[1] = curve of first compound, second compound 0.0316 µM
[2] = curve of first compound, second compound 0.1 µM
[3] = curve of first compound, second compound 0.316 µM
[4] = curve of first compound, second compound 1 µM
[5] = curve of first compound, second compound 3.16 µM
[6] = curve of first compound, second compound 10 µM
[7] = second compound 0.0316 µM, first compound 0.0316 µM
[8] = second compound 0.0316 µM, first compound 0.1 µM
[9] = second compound 0.0316 µM, first compound 0.316 µM
[10] = second compound 0.0316 µM, first compound 1 µM
[11] = second compound 0.0316 µM, first compound 3.16 µM
[12] = second compound 0.0316 µM, first compound 10 µM
[13] = second compound 0.1 µM, first compound 0.0316 µM
[14] = second compound 0.1 µM, first compound 0.1 µM
[15] = second compound 0.1 µM, first compound 0.316 µM
[16] = second compound 0.1 µM, first compound 1 µM
[17] = second compound 0.1 µM, first compound 3.16 µM
[18] = second compound 0.1 µM, first compound 10 µM
[19] = second compound 0.316 µM, first compound 0.0316 µM
[20] = second compound 0.316 µM, first compound 0.1 µM
[21] = second compound 0.316 µM, first compound 0.316 µM
[22] = second compound 0.316 µM, first compound 1 µM
[23] = second compound 0.316 µM, first compound 3.16 µM
[24] = second compound 0.316 µM, first compound 10 µM
[25] = second compound 1 µM, first compound 0.0316 µM
[26] = second compound 1 µM, first compound 0.1 µM
[27] = second compound 1 µM, first compound 0.316 µM
[28] = second compound 1 µM, first compound 1 µM
[29] = second compound 1 µM, first compound 3.16 µM
[30] = second compound 1 µM, first compound 10 µM
[31] = second compound 3.16 µM, first compound 0.0316 µM
[32] = second compound 3.16 µM, first compound 0.1 µM
[33] = second compound 3.16 µM, first compound 0.316 µM
[34] = second compound 3.16 µM, first compound 1 µM
[35] = second compound 3.16 µM, first compound 3.16 µM
[36] = second compound 3.16 µM, first compound 10 µM
[37] = second compound 10 µM, first compound 0.0316 µM
[38] = second compound 10 µM, first compound 0.1 µM
[39] = second compound 10 µM, first compound 0.316 µM
[40] = second compound 10 µM, first compound 1 µM
[41] = second compound 10 µM, first compound 3.16 µM
[42] = second compound 10 µM, first compound 10 µM
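Note: spheroids exposed to agents for seven days before readout.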

SMILES: C[C@@H](NC(=O)c1ncnc(N)c1Cl)c1ncc(C(=O)Nc2cc(C(F)(F)F)c(Cl)cn2)s1 + CC(Nc1ncnc2nc[nH]c12)c1cc2cccc(Cl)c2c(=O)n1-c1ccccc1
- IC50 [1]: > 10 µM
- IC50 [2]: > 10 µM
- IC50 [3]: > 10 µM
- IC50 [4]: > 10 µM
- IC50 [5]: > 10 µM
- IC50 [6]: > 10 µM
- viability, T/C [7]: 77.6%
- viability, T/C [8]: 90.2%
- viability, T/C [9]: 109%
- viability, T/C [10]: 114%
- viability, T/C [11]: 102%
- viability, T/C [12]: 91.5%
- viability, T/C [13]: 91%
- viability, T/C [14]: 92.5%
- viability, T/C [15]: 96.7%
- viability, T/C [16]: 109%
- viability, T/C [17]: 115%
- viability, T/C [18]: 92%
- viability, T/C [19]: 89.7%
- viability, T/C [20]: 86.4%
- viability, T/C [21]: 88.2%
- viability, T/C [22]: 96.7%
- viability, T/C [23]: 108%
- viability, T/C [24]: 92.2%
- viability, T/C [25]: 94.4%
- viability, T/C [26]: 90.5%
- viability, T/C [27]: 91%
- viability, T/C [28]: 112%
- viability, T/C [29]: 106%
- viability, T/C [30]: 75.5%
- viability, T/C [31]: 89.3%
- viability, T/C [32]: 94.8%
- viability, T/C [33]: 82%
- viability, T/C [34]: 102%
- viability, T/C [35]: 110%
- viability, T/C [36]: 67.4%
- viability, T/C [37]: 87.7%
- viability, T/C [38]: 84.8%
- viability, T/C [39]: 93.5%
- viability, T/C [40]: 92.8%
- viability, T/C [41]: 87.1%
- viability, T/C [42]: 63.4%

SMILES: Cn1ncnc1[C@H]1c2n[nH]c(=O)c3cc(F)cc(c23)N[C@@H]1c1ccc(F)cc1
- viability, T/C (compound 0.000316 µM): 114% and 102% (2×) and 106%
- viability, T/C (compound 0.001 µM): 104% [middle of 4 runs]
- viability, T/C (compound 0.00316 µM): 96.1% [middle of 4 runs]
- viability, T/C (compound 0.01 µM): 93.1% [middle of 4 runs]
- viability, T/C (compound 0.0316 µM): 104% [middle of 4 runs]
- viability, T/C (compound 0.1 µM): 90.4% [middle of 4 runs]
- IC50 (curve of compound): > 0.1 µM

SMILES: C#Cc1c(F)ccc2cc(O)cc(-c3ncc4c(N5CC6CCC(C5)N6)nc(OCC56CCCN5CC(F)C6)nc4c3F)c12 (stereo unspecified) + CC(Nc1ncnc2nc[nH]c12)c1cc2cccc(Cl)c2c(=O)n1-c1ccccc1
- IC50 [1]: > 10 µM
- IC50 [2]: > 10 µM
- IC50 [3]: > 10 µM
- IC50 [4]: 6.37 µM
- IC50 [5]: 3.95 µM
- IC50 [6]: 1.76 µM
- viability, T/C [7]: 94.9%
- viability, T/C [8]: 73.8%
- viability, T/C [9]: 77.2%
- viability, T/C [10]: 71.8%
- viability, T/C [11]: 68.8%
- viability, T/C [12]: 46.7%
- viability, T/C [13]: 91.5%
- viability, T/C [14]: 96.5%
- viability, T/C [15]: 79.7%
- viability, T/C [16]: 71.7%
- viability, T/C [17]: 68.1%
- viability, T/C [18]: 54.4%
- viability, T/C [19]: 96.7%
- viability, T/C [20]: 83.3%
- viability, T/C [21]: 79.3%
- viability, T/C [22]: 73.5%
- viability, T/C [23]: 66.9%
- viability, T/C [24]: 47.3%
- viability, T/C [25]: 100%
- viability, T/C [26]: 85.5%
- viability, T/C [27]: 71.1%
- viability, T/C [28]: 70.3%
- viability, T/C [29]: 57.9%
- viability, T/C [30]: 43.8%
- viability, T/C [31]: 102%
- viability, T/C [32]: 88.6%
- viability, T/C [33]: 71.7%
- viability, T/C [34]: 61%
- viability, T/C [35]: 56%
- viability, T/C [36]: 40.6%
- viability, T/C [37]: 95.2%
- viability, T/C [38]: 81.6%
- viability, T/C [39]: 68.4%
- viability, T/C [40]: 55.4%
- viability, T/C [41]: 45.3%
- viability, T/C [42]: 31.8%
